How the values were obtained:
B1 bradykinin receptor [1] = target: T1, B1 bradykinin receptor (Homo sapiens, UniProt P46663); assay: Antagonist activity at human bradykinin B1 receptor assessed as inhibition of Lys-desArg9-BK-induced calcium flux; assay type: functional
T1 sequence (P46663 whole entry): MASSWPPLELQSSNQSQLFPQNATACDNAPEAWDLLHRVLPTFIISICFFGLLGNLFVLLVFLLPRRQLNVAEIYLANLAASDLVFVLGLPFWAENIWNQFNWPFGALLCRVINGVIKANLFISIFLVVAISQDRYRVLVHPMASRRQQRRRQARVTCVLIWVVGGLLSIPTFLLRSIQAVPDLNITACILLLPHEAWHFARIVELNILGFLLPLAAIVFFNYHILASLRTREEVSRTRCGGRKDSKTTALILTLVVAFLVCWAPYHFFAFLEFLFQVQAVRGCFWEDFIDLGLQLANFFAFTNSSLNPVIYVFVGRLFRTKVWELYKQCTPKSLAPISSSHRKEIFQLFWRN

B1 bradykinin receptor [2] = target: T1, B1 bradykinin receptor; assay: Displacement of [3H]Lys-desArg9-BK from human bradykinin B1 receptor
[3] = Clearance in rat at 1 mg/kg, iv; assay type: ADME, organism-based; set-up: dose 1 mg/kg, route intravenous; details: in vivo
[4] = Oral bioavailability in rat at 10 mg/kg; details: in vivo
[5] = Metabolic stability in rat liver microsomes; assay type: ADME, Microsome; details: read-out: Stability
[6] = Volume of distribution at steady state in rat at 1 mg/kg, iv; assay type: ADME, organism-based; set-up: dose 1 mg/kg, route intravenous; details: in vivo, read-out: Vdss
[7] = Half life in rat at 1 mg/kg, iv; assay type: ADME, organism-based; set-up: dose 1 mg/kg, route intravenous; details: in vivo

An IC50 (B1 bradykinin receptor [1]) of 0.078 µM and a Ki (B1 bradykinin receptor [2]) of 0.011 µM were found for C=C(CNC(C)(C)C)c1ccc2c(c1)CCC[C@H]2NC(=O)C[C@@H](NS(=O)(=O)c1cccc(C(F)(F)F)c1)c1ccccc1 in this work.
An IC50 (B1 bradykinin receptor [1]) of 0.041 µM and a Ki (B1 bradykinin receptor [2]) of 0.0033 µM were found for C=C(CN1CCCCC1)c1ccc2c(c1)CCC[C@H]2NC(=O)C[C@@H](NS(=O)(=O)c1cccc(C(F)(F)F)c1)c1ccccc1 in this work.
An IC50 (B1 bradykinin receptor [1]) of 0.015 µM and a Ki (B1 bradykinin receptor [2]) of 0.012 µM were found for C=C(CN1CC[C@@H](O)C1)c1ccc2c(c1)CCC[C@H]2NC(=O)C[C@@H](NS(=O)(=O)c1cccc(C(F)(F)F)c1)c1ccccc1 in this work.
An IC50 (B1 bradykinin receptor [1]) of 0.023 µM and a Ki (B1 bradykinin receptor [2]) of 0.042 µM were found for C=C(CNCCOC)c1ccc2c(c1)CCC[C@H]2NC(=O)C[C@@H](NS(=O)(=O)c1cccc(C(F)(F)F)c1)c1ccccc1 in this work.
An IC50 (B1 bradykinin receptor [1]) of 0.105 µM and a Ki (B1 bradykinin receptor [2]) of 0.016 µM were found for C=C(CNCC1CC1)c1ccc2c(c1)CCC[C@H]2NC(=O)C[C@@H](NS(=O)(=O)c1cccc(C(F)(F)F)c1)c1ccccc1 in this work.
An IC50 (B1 bradykinin receptor [1]) of 0.316 µM and a Ki (B1 bradykinin receptor [2]) of 0.034 µM were found for CC(CN1CCCCC1)c1ccc2c(c1)CCC[C@H]2NC(=O)C[C@@H](NS(=O)(=O)c1cccc(C(F)(F)F)c1)c1ccccc1 (stereo partly specified) in this work.
An IC50 (B1 bradykinin receptor [1]) of 0.206 µM and a Ki (B1 bradykinin receptor [2]) of 0.012 µM were found for C=C(CN1CCC1)c1ccc2c(c1)CCC[C@H]2NC(=O)C[C@@H](NS(=O)(=O)c1cccc(C(F)(F)F)c1)c1ccccc1 in this work.
An IC50 (B1 bradykinin receptor [1]) of 0.0039 µM and a Ki (B1 bradykinin receptor [2]) of 0.0035 µM were found for C=C(CN1CC[C@H](O)C1)c1ccc2c(c1)CCC[C@H]2NC(=O)C[C@@H](NS(=O)(=O)c1cccc(C(F)(F)F)c1)c1ccccc1 in this work.
A clearance [3] of 30.6 mL/min/kg, a bioavailability [4] of 10% and an IC50 (B1 bradykinin receptor [1]) of 0.0097 µM were found for C=C(CN1CCCC1)c1ccc2c(c1)CCC[C@H]2NC(=O)C[C@@H](NS(=O)(=O)c1cccc(C(F)(F)F)c1)c1ccccc1 in this work. It also gave a microsomal CLint [5] of 282 µL/min/mg, a Vd [6] of 3.62 L/kg and a Ki (B1 bradykinin receptor [2]) of 0.0007 µM. For the same compound, the half-life [7] was 1.5 h.
An IC50 (B1 bradykinin receptor [1]) of 0.044 µM and a Ki (B1 bradykinin receptor [2]) of 0.0034 µM were found for C=C(CNC1CCC1)c1ccc2c(c1)CCC[C@H]2NC(=O)C[C@@H](NS(=O)(=O)c1cccc(C(F)(F)F)c1)c1ccccc1 in this work.
An IC50 (B1 bradykinin receptor [1]) of 0.047 µM and a Ki (B1 bradykinin receptor [2]) of 0.03 µM were found for C=C(CNC1CCCC1)c1ccc2c(c1)CCC[C@H]2NC(=O)C[C@@H](NS(=O)(=O)c1cccc(C(F)(F)F)c1)c1ccccc1 in this work.
An IC50 (B1 bradykinin receptor [1]) of 0.0013 µM was found for C=C(CN1CCCC1)c1ccc2c(c1)CCC[C@H]2NC(=O)C[C@@H](NS(=O)(=O)c1cccc(C(F)(F)F)c1)c1ccc(F)cc1 in this work.
An IC50 (B1 bradykinin receptor [1]) of 0.032 µM and a Ki (B1 bradykinin receptor [2]) of 0.021 µM were found for C=C(CNCCO)c1ccc2c(c1)CCC[C@H]2NC(=O)C[C@@H](NS(=O)(=O)c1cccc(C(F)(F)F)c1)c1ccccc1 in this work.
An IC50 (B1 bradykinin receptor [1]) of 0.088 µM and a Ki (B1 bradykinin receptor [2]) of 0.014 µM were found for O=C(C[C@@H](NS(=O)(=O)c1cccc(C(F)(F)F)c1)c1ccccc1)N[C@@H]1CCCc2cc(C3(CN4CCCCC4)CC3)ccc21 in this work.
An IC50 (B1 bradykinin receptor [1]) of 0.154 µM and a Ki (B1 bradykinin receptor [2]) of 0.078 µM were found for C=C(CN(C)C)c1ccc2c(c1)CCC[C@H]2NC(=O)C[C@@H](NS(=O)(=O)c1cccc(C(F)(F)F)c1)c1ccccc1 in this work.
A clearance [3] of 33.2 mL/min/kg, a bioavailability [4] of 15% and an IC50 (B1 bradykinin receptor [1]) of 0.042 µM were found for C=C(CNC(C)C)c1ccc2c(c1)CCC[C@H]2NC(=O)C[C@@H](NS(=O)(=O)c1cccc(C(F)(F)F)c1)c1ccccc1 in this work. The microsomal CLint [5] was 240 µL/min/mg, the Vd [6] was 5.86 L/kg and the Ki (B1 bradykinin receptor [2]) was 0.0046 µM. For the same compound, the half-life [7] was 2.4 h.
